“Also recorded” adds a separate entry of the source.
Assays:
[1] = test system: spontaneously hypertensive rats; experiment: Antihypertensive efficacy test in spontaneously hypertensive rats (systolic blood pressure and heart rate by implanted sensor); format: in vivo; conditions: SHR; for Systolic blood pressure compared with the control group: after 3 hours of administration; for Systolic blood pressure change, 1 hour after administration / Systolic blood pressure change, 3 hours after administration / Systolic blood pressure change, 5 hours after administration / Systolic blood pressure change, 7 hours after administration / Systolic blood pressure change, 10 hours after administration / Systolic blood pressure change, 24 hours after administration / Systolic blood pressure change, before administration: intragastric; for Systolic blood pressure change, 1 hour after administration / Systolic blood pressure change, 3 hours after administration / Systolic blood pressure change, 5 hours after administration / Systolic blood pressure change, 7 hours after administration / Systolic blood pressure change, 10 hours after administration / Systolic blood pressure change, 24 hours after administration / Heart rates change, 1 hour after administration / Heart rates change, 3 hours after administration / Heart rates change, 5 hours after administration / Heart rates change, 7 hours after administration / Heart rates change, 10 hours after administration / Heart rates change, 24 hours after administration: change vs before administration; for Systolic blood pressure change, 1 hour after administration / Systolic blood pressure change, 3 hours after administration / Systolic blood pressure change, 5 hours after administration / Systolic blood pressure change, 7 hours after administration / Systolic blood pressure change, 10 hours after administration / Systolic blood pressure change, 24 hours after administration / Systolic blood pressure change, before administration / Heart rates change, 1 hour after administration / Heart rates change, 3 hours after administration / Heart rates change, 5 hours after administration / Heart rates change, 7 hours after administration / Heart rates change, 10 hours after administration / Heart rates change, 24 hours after administration / Heart rates change, before administration: average ± standard error; for Systolic blood pressure change, before administration / Heart rates change, before administration: reference value; for Heart rates change, 1 hour after administration / Heart rates change, 3 hours after administration / Heart rates change, 5 hours after administration / Heart rates change, 7 hours after administration / Heart rates change, 10 hours after administration / Heart rates change, 24 hours after administration / Heart rates change, before administration: oral
Experimental: 12-week-old spontaneously hypertensive rats (hereinafter referred to as SHR, purchased from Beijing Weitong Lihua Experimental Animal Technology Co., Ltd.) were anesthetized with 2.5% sodium pentobarbital for intraperitoneal injection. After that, the blood pressure sensing catheter of hypertension implant was inserted into their abdominal aorta, while the implant was fixed to the abdominal wall, and then postoperative daily care is performed after suturing.
Rats with systolic blood pressure exceeding 160 mm Hg were divided into 3 groups (control group, compound (A) group and compound (B) group), wherein each group has 8 rats. The control group was administrated 0.5% sodium carboxymethylcellulose (hereinafter referred to as CMC-Na); the compound (B) group and the compound (A) group were respectively administered the compound (B) and the compound (A), both of which were dissolved by 0.5% CMC-Na, by intragastric administration, at a dose of 1 mg/kg (calculated by the effective dose of valsartan) and a volume calculated by 4 mL/kg.
The systolic blood pressure and heart rate of SHR were compared before and after administration (the systolic blood pressure and heart rate of SHR before administration as reference value), which were detected three times at each time point with the average value recorded.

[2] = Room temperature competition test between crystalline forms (ethyl acetate suspension, XRD); format: physicochemical; conditions: for Relative stability under room temperature (competition test): ethyl acetate suspension
Experimental: (1) Competition experiment between the crystalline form I and the crystalline form II
Equivalent amounts of the crystalline form I and the crystalline form II samples were mixed well, added with 0.8 ml ethyl acetate to form a suspension, stirred overnight and detected by XRD.
(2) Competition experiment between the crystalline form II and the crystalline form III
Equivalent amounts of the crystalline form II and the crystalline form III samples were mixed well, added with 0.2 ml ethyl acetate to form a suspension, which was stirred overnight to obtain the crystalline form II determined by XRD detection.
(3) Competition experiment between crystalline form I and crystalline form III
Equivalent amounts of the crystalline form I and the crystalline form III samples were mixed uniformly, added with 0.2 ml ethyl acetate to form a suspension, which was stirred overnight, to obtain the crystalline form I determined by XRD detection.

[3] = Comparative experiment of stability between crystalline form III and IV (drying overnight at room temperature, XRD); format: physicochemical
Text: (4) Comparative experiment of stability between the crystalline form III and the crystalline form IV
The Crystalline form III and the crystalline form IV samples were respectively dried overnight at room temperature.

[4] = Comparative stability test (total impurity content); format: physicochemical; conditions: 25° C., 60% relative humidity; for total impurity content % at 0 months / total impurity content % at 1 month / total impurity content % at 2 months / total impurity content % at 3 months / total impurity content % at 6 months: packed
Experimental: The stability of an amorphous form, a mixture of the crystalline forms I and the crystal II, the crystalline form II and the crystal form III of the compound of formula (A) were investigated. Specifically, the amorphous form, the mixture of the crystalline form I and the crystalline form II (weight ratio 1:2), the crystalline form II and the crystalline form III were taken 200 mg respectively to be investigated as follows:
Packing: Polyvinyl chloride (PVC) material ziplock bag (the inner layer) was vacuumized, aluminum foil (the middle layer) was vacuumized, and aluminum foil desiccant (the outer layer) was vacuum and filled in with nitrogen;
Inspection conditions: 25° C., 60% relative humidity. The indicator was the total impurity content, which is determined by detection of samples three times at each time point with the average value recorded. The time points for sampling include 0, 1, 2, 3 and 6 months after packing.

[5] = Effect of tabletting processes on the crystalline form II (XRD); format: physicochemical; conditions: 50 mg, single punching machine, XRD vs crude sample
Experimental: Tabletting method: 50 mg of the crystalline form II was tableted under 20 kg and 25 kg pressure tabletting by a single punching machine.
The XRD of the obtained sample powder was compared with the XRD of the crude sample, the results are shown in FIG. 8 (from top to bottom: the crude sample, the sample after 25 kg pressure tabletting and the sample after 20 kg pressure tabletting).

[6] = Influences of high temperature and high humidity on the crystalline form II (XRD); format: physicochemical; conditions: XRD vs crude sample
Experimental: Two samples of 20 mg of the crystalline form II were respectively placed at 60° C. (sealed and shielded from light) and 85% relative humidity (exposed in the air at room temperature and shielded from light), detected by XRD after 10 days and compared with the XRD of the crude sample.

[7] = equivalent amounts, 0.2 ml ethyl acetate suspension, stirred overnight, XRD

CCOc1nc2cccc(C(=O)OC(C)OC(=O)OCc3nc(C)c(C)nc3C)c2n1Cc1ccc(-c2ccccc2-c2noc(=O)[n-]2)cc1.[K+] (single isomer, unassigned) [Compound (A)]
Lowering of heart rate compared with the compound (B) group ([1]; 1 mg/kg): more potent with longer-lasting of lowering heart rate | Antihypertensive effect compared with the compound (B) group ([1]; 1 mg/kg intragastric): more potent with longer-lasting antihypertensive effect | Systolic blood pressure compared with the control group ([1]; 1 mg/kg): significantly decreased | Systolic blood pressure change, 1 hour after administration ([1]; 1 mg/kg, 1 mg/kg): −7.0 ± 3.4 mmHg | Systolic blood pressure change, 3 hours after administration ([1]; 1 mg/kg, 1 mg/kg): −34.3 ± 1.9 mmHg | Systolic blood pressure change, 5 hours after administration ([1]; 1 mg/kg, 1 mg/kg): −46.5 ± 2.5 mmHg | Systolic blood pressure change, 7 hours after administration ([1]; 1 mg/kg, 1 mg/kg): −49.4 ± 4.1 mmHg | Systolic blood pressure change, 10 hours after administration ([1]; 1 mg/kg, 1 mg/kg): −45.3 ± 3.3 mmHg | Systolic blood pressure change, 24 hours after administration ([1]; 1 mg/kg, 1 mg/kg): −25.9 ± 3.4 mmHg | Systolic blood pressure change, before administration ([1]; 1 mg/kg): 0.0 ± 0.0 mmHg | Heart rates change, 1 hour after administration ([1]; 1 mg/kg, 1 mg/kg): −3.6 ± 2.4 times/minute | Heart rates change, 3 hours after administration ([1]; 1 mg/kg, 1 mg/kg): −5.0 ± 2.5 times/minute | Heart rates change, 5 hours after administration ([1]; 1 mg/kg, 1 mg/kg): −10.1 ± 3.0 times/minute | Heart rates change, 7 hours after administration ([1]; 1 mg/kg, 1 mg/kg): −17.5 ± 3.0 times/minute | Heart rates change, 10 hours after administration ([1]; 1 mg/kg, 1 mg/kg): −25.4 ± 2.4 times/minute | Heart rates change, 24 hours after administration ([1]; 1 mg/kg, 1 mg/kg): −28.6 ± 8 times/minute | Heart rates change, before administration ([1]; 1 mg/kg): 0.0 ± 0.0 times/minute

CCOc1nc2cccc(C(=O)OC(C)OC(=O)OCc3nc(C)c(C)nc3C)c2n1Cc1ccc(-c2ccccc2-c2noc(=O)[n-]2)cc1.[K+] (single isomer, unassigned) [Compound (B), reference compound]
Systolic blood pressure compared with the control group ([1]; 1 mg/kg): significantly decreased | Systolic blood pressure change, 1 hour after administration ([1]; 1 mg/kg, 1 mg/kg): −4.9 ± 4.8 mmHg | Systolic blood pressure change, 3 hours after administration ([1]; 1 mg/kg, 1 mg/kg): −22.0 ± 3.6 mmHg | Systolic blood pressure change, 5 hours after administration ([1]; 1 mg/kg, 1 mg/kg): −30.5 ± 3.5 mmHg | Systolic blood pressure change, 7 hours after administration ([1]; 1 mg/kg, 1 mg/kg): −38.8 ± 2.3 mmHg | Systolic blood pressure change, 10 hours after administration ([1]; 1 mg/kg, 1 mg/kg): −33.0 ± 1.7 mmHg | Systolic blood pressure change, 24 hours after administration ([1]; 1 mg/kg, 1 mg/kg): −10.2 ± 2.1 mmHg | Systolic blood pressure change, before administration ([1]; 1 mg/kg): 0.0 ± 0.0 mmHg | Heart rates change, 1 hour after administration ([1]; 1 mg/kg, 1 mg/kg): −3.4 ± 2.6 times/minute | Heart rates change, 3 hours after administration ([1]; 1 mg/kg, 1 mg/kg): −2.33 ± 2.6 times/minute | Heart rates change, 5 hours after administration ([1]; 1 mg/kg, 1 mg/kg): −6.5 ± 2.8 times/minute | Heart rates change, 7 hours after administration ([1]; 1 mg/kg, 1 mg/kg): −6.2 ± 3.0 times/minute | Heart rates change, 10 hours after administration ([1]; 1 mg/kg, 1 mg/kg): −12.3 ± 2.8 times/minute | Heart rates change, 24 hours after administration ([1]; 1 mg/kg, 1 mg/kg): −6.7 ± 2.6 times/minute | Heart rates change, before administration ([1]; 1 mg/kg): 0.0 ± 0.0 times/minute

CCOc1nc2cccc(C(=O)OC(C)OC(=O)OCc3nc(C)c(C)nc3C)c2n1Cc1ccc(-c2ccccc2-c2noc(=O)[n-]2)cc1.[K+] (centres unmarked) [crystalline form III]
Crystal form transformation, competition form I vs form III [2, 7]: completely transformed into the crystalline form I | Crystal form transformation, competition form II vs form III [2, 7]: completely transformed into the crystalline form II | Portion converted to the crystalline form I ([3]; dried overnight at room temperature, XRD): no more than 30% | Stability at room temperature (drying experiment) [3]: superior to that of the crystalline form IV | Chemical stability compared with the amorphous form [4]: better than the amorphous form | total impurity content % at 0 months [4]: 1.56% | total impurity content % at 1 month [4]: 2.55% | total impurity content % at 2 months [4]: 2.98% | total impurity content % at 3 months [4]: 3.34% | total impurity content % at 6 months [4]: 3.76%

CCOc1nc2cccc(C(=O)OC(C)OC(=O)OCc3nc(C)c(C)nc3C)c2n1Cc1ccc(-c2ccccc2-c2noc(=O)[n-]2)cc1.[K+] (centres unmarked) [crystalline form II]
Relative stability under room temperature (competition test) [2]: better than that of the crystalline form I; also recorded: better than that of the crystalline form III | Stability at room temperature (drying experiment) [3]: superior to that of the crystalline form IV | Crystal form after tabletting, 20 kg pressure [5]: remains unchanged | Crystal form after tabletting, 25 kg pressure [5]: remains unchanged | Crystal form after 10 days at 85% relative humidity ([6]; exposed in the air at room temperature, shielded from light): remains unchanged | Crystal form after 10 days at 60° C. ([6]; sealed and shielded from light): remains unchanged | Chemical stability compared with the amorphous form [4]: better than the amorphous form | total impurity content % at 0 months [4]: 1.29% | total impurity content % at 1 month [4]: 1.43% | total impurity content % at 2 months [4]: 1.59% | total impurity content % at 3 months [4]: 1.82% | total impurity content % at 6 months [4]: 1.87%

CCOc1nc2cccc(C(=O)OC(C)OC(=O)OCc3nc(C)c(C)nc3C)c2n1Cc1ccc(-c2ccccc2-c2noc(=O)[n-]2)cc1.[K+] (centres unmarked) [crystalline form IV]
Crystal form transformation on drying at room temperature ([3]; dried at room temperature, XRD): converted to the crystalline form I; also recorded: completely transformed into the crystalline form I | Stability at room temperature (drying experiment) [3]: poor stability

CCOc1nc2cccc(C(=O)OC(C)OC(=O)OCc3nc(C)c(C)nc3C)c2n1Cc1ccc(-c2ccccc2-c2noc(=O)[n-]2)cc1.[K+] (centres unmarked) [crystalline form I]
Content of the crystalline form I in the obtained product ([2]; equivalent amounts of form I and form II, 0.8 ml ethyl acetate suspension, stirred overnight, XRD): about 5% | Relative stability under room temperature (competition test) [2]: better than that of the crystalline form III | Stability at room temperature (drying experiment) [3]: superior to that of the crystalline form IV | Chemical stability compared with the amorphous form [4]: better than the amorphous form | total impurity content % at 0 months [4]: 1.11% | total impurity content % at 1 month [4]: 1.62% | total impurity content % at 2 months [4]: 2.34% | total impurity content % at 3 months [4]: 2.49% | total impurity content % at 6 months [4]: 3.10%

CCOc1nc2cccc(C(=O)OC(C)OC(=O)OCc3nc(C)c(C)nc3C)c2n1Cc1ccc(-c2ccccc2-c2noc(=O)[n-]2)cc1.[K+] (centres unmarked) [mixture of crystalline form I and II]
Chemical stability compared with the amorphous form [4]: better than the amorphous form | total impurity content % at 0 months [4]: 0.90% | total impurity content % at 1 month [4]: 1.58% | total impurity content % at 2 months [4]: 2.20% | total impurity content % at 3 months [4]: 2.40% | total impurity content % at 6 months [4]: 3.29%
